From ChEMBL document CHEMBL5696442, “Discovery of type II inhibitors of TGFβ-activated kinase 1 (TAK1) and mitogen-activated protein kinase kinase kinase kinase 2 (MAP4K2)” (J Med Chem, 2015)
The source made the active and inactive calls. No cut-off for these calls is given here.

What was measured:
[1] = molecular target: Ribosomal protein S6 kinase alpha-5 (Homo sapiens) (UniProt O75582); experiment: Inhibition of MSK1 domain1 ATP Loop labeling site in human Huh-7 cells at 1 uM by KiNativ Profiling analysis relative to control; assay type: cell-based
[2] = molecular target: Phosphatidylinositol 4-kinase alpha (Homo sapiens) (UniProt P42356); experiment: Inhibition of PI4KA ATP labeling site in human Huh-7 cells at 1 uM by KiNativ Profiling analysis relative to control; assay type: cell-based
Ephrin type-A receptor 2 = Ephrin type-A receptor 2 (Homo sapiens, UniProt P29317); experiment: Inhibition of EphA2 ACT labeling site in human Huh-7 cell lysate at 1 uM by KiNativ Profiling analysis relative to control; assay type: subcellular
[3] = molecular target: Serine/threonine-protein kinase Nek7 (Homo sapiens) (UniProt Q8TDX7); experiment: Inhibition of NEK7 Lys2 labeling site harbouring DIKPANVFITATGVVK in human Huh-7 cell lysate at 1 uM by KiNativ Profiling analysis relative to control; assay type: subcellular
[4] = molecular target: Glycogen synthase kinase-3 beta (Homo sapiens) (UniProt P49841); experiment: Inhibition of GSK3B (unknown origin) at 10 uM by Ambit Kinomescan binding assay
[5] = molecular target: Serine/threonine-protein kinase BRSK2 (Homo sapiens) (UniProt Q8IWQ3); experiment: Inhibition of BRSK2 (unknown origin) at 10 uM by Ambit Kinomescan binding assay
[6] = system: Tyrosine-protein kinase ABL1 (Homo sapiens), P00519 [E255K]; experiment: Inhibition of ABL1 E255K mutant (unknown origin) at 10 uM by Ambit Kinomescan binding assay relative to control
[7] = molecular target: STE20-like serine/threonine-protein kinase (Homo sapiens) (UniProt Q9H2G2); experiment: Inhibition of SLK K2 labeling site harbouring IIHRDLKAGNILFTLDGDIK in human Huh-7 cells at 10 uM by KiNativ Profiling analysis relative to control; assay type: cell-based
[8] = molecular target: Peripheral plasma membrane protein CASK (Homo sapiens) (UniProt O14936); experiment: Inhibition of CASK K1 labeling site in human Huh-7 cells at 10 uM by KiNativ Profiling analysis relative to control
[9] = molecular target: Serine/threonine-protein kinase MARK1 (Homo sapiens) (UniProt Q9P0L2); experiment: Inhibition of MARK1 (unknown origin) at 10 uM by Ambit Kinomescan binding assay
[10] = molecular target: Muscle, skeletal receptor tyrosine-protein kinase (Homo sapiens) (UniProt O15146); experiment: Inhibition of MUSK (unknown origin) at 10 uM by Ambit Kinomescan binding assay relative to control; values are per cent of control
[11] = molecular target: Tyrosine-protein kinase ABL2 (Homo sapiens, UniProt P42684); experiment: Inhibition of ABL2 (unknown origin) at 10 uM by Ambit Kinomescan binding assay relative to control; values are per cent of control
[12] = molecular target: Serine/threonine-protein kinase Nek4 (Homo sapiens) (UniProt P51957); experiment: Inhibition of NEK4 Lys2 labeling site in human A-375 cells at 0.5 uM by KiNativ Profiling analysis relative to control; assay type: cell-based
[13] = molecular target: Epidermal growth factor receptor (Homo sapiens) (UniProt P00533); experiment: Inhibition of EGFR (unknown origin) at 1 uM by Ambit Kinomescan binding assay relative to control
[14] = molecular target: ALK tyrosine kinase receptor (Homo sapiens) (UniProt Q9UM73); experiment: Inhibition of ALK (unknown origin) at 1 uM by Ambit Kinomescan binding assay relative to control
[15] = molecular target: Receptor-type tyrosine-protein kinase FLT3 (Homo sapiens) (UniProt P36888); experiment: Inhibition of FLT3 (unknown origin) at 1 uM by Ambit Kinomescan binding assay relative to control; values are per cent of control
[16] = molecular target: Dual specificity protein kinase TTK (Homo sapiens) (UniProt P33981); experiment: Inhibition of TTK (unknown origin) at 1 uM by Ambit Kinomescan binding assay relative to control
[17] = molecular target: Mitogen-activated protein kinase kinase kinase kinase 3 (Homo sapiens) (UniProt Q8IVH8); experiment: Inhibition of MAP4K3 (unknown origin) at 1 uM by Ambit Kinomescan binding assay relative to control
[18] = molecular target: LIM domain kinase 1 (Homo sapiens) (UniProt P53667); experiment: Inhibition of LIMK1 (unknown origin) at 1 uM by Ambit Kinomescan binding assay relative to control; values are per cent of control
[19] = molecular target: T1, Serine/threonine-protein kinase Nek9 (Homo sapiens) (UniProt Q8TD19); experiment: Inhibition of NEK9 Lys2 labeling site in human A-375 cells at 0.5 uM by KiNativ Profiling analysis relative to control; assay type: cell-based
T1 sequence (whole entry): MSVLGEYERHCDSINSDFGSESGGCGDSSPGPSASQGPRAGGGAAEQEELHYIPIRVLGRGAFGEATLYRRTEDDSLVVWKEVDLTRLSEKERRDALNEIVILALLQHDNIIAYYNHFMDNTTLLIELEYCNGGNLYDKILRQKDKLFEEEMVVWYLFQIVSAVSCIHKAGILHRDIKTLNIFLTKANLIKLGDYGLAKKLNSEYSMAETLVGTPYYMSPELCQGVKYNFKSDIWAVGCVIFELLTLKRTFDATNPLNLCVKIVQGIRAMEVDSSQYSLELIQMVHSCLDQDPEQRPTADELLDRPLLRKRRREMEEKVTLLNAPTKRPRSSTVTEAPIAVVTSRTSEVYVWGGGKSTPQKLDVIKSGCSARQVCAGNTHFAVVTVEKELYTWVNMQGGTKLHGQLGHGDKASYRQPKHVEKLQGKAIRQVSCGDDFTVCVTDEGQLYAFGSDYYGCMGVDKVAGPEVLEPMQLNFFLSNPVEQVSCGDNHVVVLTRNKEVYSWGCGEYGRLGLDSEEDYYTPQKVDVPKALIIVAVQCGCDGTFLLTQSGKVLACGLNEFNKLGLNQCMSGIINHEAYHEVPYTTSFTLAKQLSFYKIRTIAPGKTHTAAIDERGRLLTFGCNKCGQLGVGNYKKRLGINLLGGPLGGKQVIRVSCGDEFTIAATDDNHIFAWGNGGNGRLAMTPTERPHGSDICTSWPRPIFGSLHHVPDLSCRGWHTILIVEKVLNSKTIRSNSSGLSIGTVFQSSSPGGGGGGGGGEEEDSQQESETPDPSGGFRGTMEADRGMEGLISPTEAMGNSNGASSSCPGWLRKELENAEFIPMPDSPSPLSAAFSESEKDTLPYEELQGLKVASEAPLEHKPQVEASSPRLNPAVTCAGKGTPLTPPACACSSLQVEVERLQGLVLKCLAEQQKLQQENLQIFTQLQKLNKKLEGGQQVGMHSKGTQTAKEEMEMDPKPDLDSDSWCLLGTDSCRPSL

Chain of Dual specificity protein kinase TTK (Homo sapiens) (P33981 whole entry): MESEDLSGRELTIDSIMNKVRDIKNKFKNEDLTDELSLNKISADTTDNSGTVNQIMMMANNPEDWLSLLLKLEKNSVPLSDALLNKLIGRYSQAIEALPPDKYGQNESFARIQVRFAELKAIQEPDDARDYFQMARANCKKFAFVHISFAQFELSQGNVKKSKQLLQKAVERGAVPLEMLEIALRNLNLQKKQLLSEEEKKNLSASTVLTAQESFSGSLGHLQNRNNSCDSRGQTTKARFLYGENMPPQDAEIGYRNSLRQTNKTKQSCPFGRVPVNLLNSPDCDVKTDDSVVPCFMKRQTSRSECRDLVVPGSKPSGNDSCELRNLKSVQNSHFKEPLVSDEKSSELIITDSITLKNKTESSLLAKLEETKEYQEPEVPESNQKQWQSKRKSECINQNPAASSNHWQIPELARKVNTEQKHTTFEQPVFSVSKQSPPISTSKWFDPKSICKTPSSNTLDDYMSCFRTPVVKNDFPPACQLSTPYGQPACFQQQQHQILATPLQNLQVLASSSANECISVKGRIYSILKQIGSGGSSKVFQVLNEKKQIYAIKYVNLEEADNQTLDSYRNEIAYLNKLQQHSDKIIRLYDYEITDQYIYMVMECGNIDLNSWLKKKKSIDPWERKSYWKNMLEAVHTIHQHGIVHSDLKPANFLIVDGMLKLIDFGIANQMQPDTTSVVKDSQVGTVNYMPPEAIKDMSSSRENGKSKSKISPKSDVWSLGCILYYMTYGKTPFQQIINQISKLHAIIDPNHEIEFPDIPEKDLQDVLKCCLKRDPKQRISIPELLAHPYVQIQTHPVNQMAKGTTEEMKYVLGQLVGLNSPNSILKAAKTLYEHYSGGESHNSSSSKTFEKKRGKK
Chain of Receptor-type tyrosine-protein kinase FLT3 (Homo sapiens) (P36888 whole entry): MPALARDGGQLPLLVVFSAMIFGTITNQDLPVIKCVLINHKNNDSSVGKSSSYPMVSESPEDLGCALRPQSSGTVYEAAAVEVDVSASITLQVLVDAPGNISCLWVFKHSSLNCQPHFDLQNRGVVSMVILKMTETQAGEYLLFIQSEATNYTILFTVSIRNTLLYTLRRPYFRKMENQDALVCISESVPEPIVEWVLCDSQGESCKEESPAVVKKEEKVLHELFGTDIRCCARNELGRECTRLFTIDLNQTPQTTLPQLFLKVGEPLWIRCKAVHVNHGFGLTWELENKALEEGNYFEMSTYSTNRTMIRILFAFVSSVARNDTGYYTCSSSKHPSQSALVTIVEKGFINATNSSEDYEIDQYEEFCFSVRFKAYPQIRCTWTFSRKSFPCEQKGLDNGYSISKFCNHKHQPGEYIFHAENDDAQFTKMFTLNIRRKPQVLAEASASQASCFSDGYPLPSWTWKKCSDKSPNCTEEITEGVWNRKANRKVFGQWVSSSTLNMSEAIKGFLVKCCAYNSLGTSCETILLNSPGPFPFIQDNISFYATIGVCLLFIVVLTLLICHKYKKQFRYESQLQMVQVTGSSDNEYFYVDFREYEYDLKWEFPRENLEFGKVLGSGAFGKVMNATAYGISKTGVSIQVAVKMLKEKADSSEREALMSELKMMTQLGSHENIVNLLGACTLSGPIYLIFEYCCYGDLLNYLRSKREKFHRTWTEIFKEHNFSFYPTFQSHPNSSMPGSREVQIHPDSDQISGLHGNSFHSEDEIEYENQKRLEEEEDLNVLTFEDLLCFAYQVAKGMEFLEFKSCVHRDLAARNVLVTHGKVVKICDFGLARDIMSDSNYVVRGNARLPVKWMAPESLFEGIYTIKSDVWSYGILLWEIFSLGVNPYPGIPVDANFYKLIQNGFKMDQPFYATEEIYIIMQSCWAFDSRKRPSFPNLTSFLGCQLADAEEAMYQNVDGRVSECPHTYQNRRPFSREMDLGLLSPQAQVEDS
Chain of STE20-like serine/threonine-protein kinase (Homo sapiens) (Q9H2G2 whole entry, looked up): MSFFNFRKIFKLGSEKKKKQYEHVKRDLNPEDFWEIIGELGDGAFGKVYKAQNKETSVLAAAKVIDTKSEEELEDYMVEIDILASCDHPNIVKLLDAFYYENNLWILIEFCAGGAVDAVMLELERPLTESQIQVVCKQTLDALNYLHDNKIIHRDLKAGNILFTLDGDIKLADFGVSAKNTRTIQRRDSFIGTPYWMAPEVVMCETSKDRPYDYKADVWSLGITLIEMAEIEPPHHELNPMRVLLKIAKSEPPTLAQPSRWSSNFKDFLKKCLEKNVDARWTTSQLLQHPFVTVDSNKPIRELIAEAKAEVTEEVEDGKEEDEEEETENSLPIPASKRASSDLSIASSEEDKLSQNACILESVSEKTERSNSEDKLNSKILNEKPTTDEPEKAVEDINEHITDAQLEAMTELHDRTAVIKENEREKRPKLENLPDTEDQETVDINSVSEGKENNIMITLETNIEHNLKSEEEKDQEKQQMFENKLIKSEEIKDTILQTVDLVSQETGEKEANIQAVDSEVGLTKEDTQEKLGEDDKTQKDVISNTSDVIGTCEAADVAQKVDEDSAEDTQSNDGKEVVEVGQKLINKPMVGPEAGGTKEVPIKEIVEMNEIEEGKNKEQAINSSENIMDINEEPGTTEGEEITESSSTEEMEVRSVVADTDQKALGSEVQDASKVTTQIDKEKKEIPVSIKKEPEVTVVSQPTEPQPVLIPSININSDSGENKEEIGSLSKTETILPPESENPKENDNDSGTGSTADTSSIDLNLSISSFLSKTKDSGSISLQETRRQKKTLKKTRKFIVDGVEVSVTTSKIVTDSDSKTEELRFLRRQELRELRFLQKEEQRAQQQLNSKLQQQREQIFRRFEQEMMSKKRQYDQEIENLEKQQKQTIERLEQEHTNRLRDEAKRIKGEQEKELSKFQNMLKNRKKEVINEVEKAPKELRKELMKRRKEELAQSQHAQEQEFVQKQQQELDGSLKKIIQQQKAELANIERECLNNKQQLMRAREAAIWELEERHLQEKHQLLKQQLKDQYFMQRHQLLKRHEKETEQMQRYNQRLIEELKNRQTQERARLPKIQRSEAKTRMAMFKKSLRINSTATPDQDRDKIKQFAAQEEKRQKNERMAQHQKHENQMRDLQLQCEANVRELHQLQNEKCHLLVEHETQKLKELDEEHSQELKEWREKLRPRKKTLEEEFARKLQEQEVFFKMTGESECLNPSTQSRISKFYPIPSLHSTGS
Chain of Serine/threonine-protein kinase BRSK2 (Homo sapiens) (Q8IWQ3 whole entry): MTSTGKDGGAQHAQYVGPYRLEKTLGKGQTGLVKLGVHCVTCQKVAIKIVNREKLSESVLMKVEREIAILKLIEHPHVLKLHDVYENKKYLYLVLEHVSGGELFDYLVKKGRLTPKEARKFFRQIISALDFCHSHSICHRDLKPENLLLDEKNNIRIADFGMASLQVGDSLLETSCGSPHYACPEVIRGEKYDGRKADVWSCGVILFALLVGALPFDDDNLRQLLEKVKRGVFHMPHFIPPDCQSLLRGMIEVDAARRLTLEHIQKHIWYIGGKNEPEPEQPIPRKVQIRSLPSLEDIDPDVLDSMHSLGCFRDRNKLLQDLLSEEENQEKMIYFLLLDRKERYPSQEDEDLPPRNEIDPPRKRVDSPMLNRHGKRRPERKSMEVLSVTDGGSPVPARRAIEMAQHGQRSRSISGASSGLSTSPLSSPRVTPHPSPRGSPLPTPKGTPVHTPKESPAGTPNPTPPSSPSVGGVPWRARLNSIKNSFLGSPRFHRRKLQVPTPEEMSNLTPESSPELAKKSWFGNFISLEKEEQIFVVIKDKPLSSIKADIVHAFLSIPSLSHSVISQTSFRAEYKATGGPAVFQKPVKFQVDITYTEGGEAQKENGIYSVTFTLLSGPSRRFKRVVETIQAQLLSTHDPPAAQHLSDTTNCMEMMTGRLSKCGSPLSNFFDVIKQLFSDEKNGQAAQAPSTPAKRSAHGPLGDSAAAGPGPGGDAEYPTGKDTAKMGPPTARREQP
Chain of Peripheral plasma membrane protein CASK (Homo sapiens) (O14936 whole entry, looked up): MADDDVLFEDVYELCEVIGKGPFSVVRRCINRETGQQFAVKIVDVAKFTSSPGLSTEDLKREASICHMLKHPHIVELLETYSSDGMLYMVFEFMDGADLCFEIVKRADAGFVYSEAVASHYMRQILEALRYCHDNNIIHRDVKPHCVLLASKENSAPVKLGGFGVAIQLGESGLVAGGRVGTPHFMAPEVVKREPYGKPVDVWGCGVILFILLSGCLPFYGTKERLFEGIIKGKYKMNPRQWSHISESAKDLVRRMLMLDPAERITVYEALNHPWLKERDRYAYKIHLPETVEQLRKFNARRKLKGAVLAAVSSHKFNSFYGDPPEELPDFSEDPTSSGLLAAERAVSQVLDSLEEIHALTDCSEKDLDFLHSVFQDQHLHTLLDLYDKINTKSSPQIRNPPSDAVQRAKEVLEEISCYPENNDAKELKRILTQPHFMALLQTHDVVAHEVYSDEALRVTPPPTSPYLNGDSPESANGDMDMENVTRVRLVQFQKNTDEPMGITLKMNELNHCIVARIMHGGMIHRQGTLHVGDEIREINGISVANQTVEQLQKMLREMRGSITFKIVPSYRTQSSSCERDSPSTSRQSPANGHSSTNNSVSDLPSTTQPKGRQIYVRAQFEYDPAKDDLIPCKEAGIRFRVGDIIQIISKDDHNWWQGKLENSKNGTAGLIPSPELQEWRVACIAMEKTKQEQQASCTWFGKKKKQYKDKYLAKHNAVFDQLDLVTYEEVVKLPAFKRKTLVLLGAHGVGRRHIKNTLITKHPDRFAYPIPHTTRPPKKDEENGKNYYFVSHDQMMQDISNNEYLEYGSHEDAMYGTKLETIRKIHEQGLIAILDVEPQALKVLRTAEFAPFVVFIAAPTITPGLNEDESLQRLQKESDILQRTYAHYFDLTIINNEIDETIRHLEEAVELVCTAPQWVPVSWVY
Chain of Serine/threonine-protein kinase Nek7 (Homo sapiens) (Q8TDX7 whole entry, looked up): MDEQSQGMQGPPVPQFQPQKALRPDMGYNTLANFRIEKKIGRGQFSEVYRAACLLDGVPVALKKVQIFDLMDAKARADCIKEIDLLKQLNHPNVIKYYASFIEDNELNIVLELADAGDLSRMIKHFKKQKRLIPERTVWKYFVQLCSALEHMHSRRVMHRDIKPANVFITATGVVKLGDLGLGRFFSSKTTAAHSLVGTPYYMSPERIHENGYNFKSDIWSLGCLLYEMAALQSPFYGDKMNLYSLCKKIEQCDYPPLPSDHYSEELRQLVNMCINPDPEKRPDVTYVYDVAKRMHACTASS

## CNc1cc(Oc2cc(C(=O)Nc3cc(N4CCN(C)CC4)cc(C(F)(F)F)c3)ccc2C)ncn1
[1]
  inhibition: 11.5%
[2]
  inhibition: 29.8%
Ephrin type-A receptor 2
  inhibition: 25.1%
[3]
  inhibition: -5%

## CCN1CCN(Cc2ccc(NC(=O)c3ccc(C)c(Oc4ccnc5[nH]ccc45)c3)cc2C(F)(F)F)CC1
[4]
  inhibition: inactive
[5]
  inhibition: inactive
[6]
  inhibition: 1.2%
[7]
  inhibition: 15.7%
[8]
  inhibition: 12%
[9]
  inhibition: inactive
[10]
  % of control: 0.2%
[11]
  % of control: 0.6%

## CCN1CCN(Cc2ccc(NC(=O)c3ccc(C)c(/C=C/c4cnc5[nH]ccc5c4OC)c3)cc2C(F)(F)F)CC1
[12]
  inhibition: 8.6%
[13]
  inhibition: 7.6%
[14]
  inhibition: 80%
[15]
  residual activity: 0.15%
[16]
  inhibition: 56%
[17]
  inhibition: 20%
[18]
  residual activity: 25%
[19]
  inhibition: 10.4%
